Where “and” joins values, the source holds several entries; their conditions need not be identical. Equal values may be shown once. Calls of active or inactive are those of the source.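 The calls were made as follows: active = compounds whose fitted half-maximal concentration for changing the GFP signal is at or below a set limit; inactive = the rest.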

A short description of the assay: TOR pathway RPL19A-GFP modulators, concentration series – cell-based, S. cerevisiae, flow cytometry, MLPCN hits, dose response (AID 2740).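 Also: background is signal of the same compound in parental non-GFP s288c yeast.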 The note with it: S. cerevisiae RPL19A-GFP strain, flow cytometry fluorescence, 3 h; at 33 µM (top of the series).
As for `O=S1(=O)C=C(Sc2nc3ccccc3s2)c2ccccc21`, the GFP fluorescence, lower = active (kMESF (background-subtracted)) is 36 (inactive).

Consider `O=C(NCc1ccc2c(c1)OCO2)c1nc(S(=O)(=O)Cc2ccccc2)ncc1Cl`, for which the GFP fluorescence, lower = active (kMESF (background-subtracted)) is 43.5 (inactive).

Regarding `CC(OC(=O)c1ccco1)C(=O)Nc1nc(-c2ccccc2)cs1` (centres undefined), the GFP fluorescence, lower = active (kMESF (background-subtracted)) is 37.1 (inactive).

In the case of `Cc1ccc(C2=NN(S(C)(=O)=O)C(c3ccc4c(c3)OCO4)C2)cc1` (centres undefined), the GFP fluorescence, lower = active (kMESF (background-subtracted)) was 44.8 (inactive).

Regarding `Cc1nn2c(NCc3ccccn3)c3c(nc2c1-c1ccccc1)CCC3`, the GFP fluorescence, lower = active (kMESF (background-subtracted)) was 44.3 (inactive).

With `O=S(=O)(/N=C(/Sc1ccccc1)c1ccccc1)c1ccccc1`, the GFP fluorescence, lower = active (kMESF (background-subtracted)) was 34.5 (inactive).

On to `CCc1ccc(OCC(=O)NNC(=S)NC(=O)C2CC2)c(Br)c1`, for which the GFP fluorescence, lower = active (kMESF (background-subtracted)) is 45.8 (inactive).

As to `O=C(COc1ccccc1)NNC(=S)NC(=O)c1ccc(Cl)cc1Cl`, the GFP fluorescence, lower = active (kMESF (background-subtracted)) was 28 (inactive).

Regarding `CC(C)[C@@]1(c2ccccc2)ON(c2ccccc2C(F)(F)F)C1=O`, the GFP fluorescence, lower = active (kMESF (background-subtracted)) is 40.1 (inactive).

As to `O=[N+]([O-])c1ccc(O)c2ncccc12`, the GFP fluorescence, lower = active (kMESF (background-subtracted)) was 25.5 (inactive) and 19.3 (inactive).

As to `O=C1c2cccc3c([N+](=O)[O-])ccc(c23)C(=O)N1CCc1ccccn1`, the GFP fluorescence, lower = active (kMESF (background-subtracted)) was 47.1 (inactive).

As to `COc1cccc(/C=C2\SC(=S)N(CCCC(=O)Nc3ccc(C(=O)O)cc3)C2=O)c1`, the GFP fluorescence, lower = active (kMESF (background-subtracted)) is 38.2 (inactive).

As to `CCCc1nnc(NC(=O)c2c(O)c3cccc4c3n(c2=O)CCC4)s1`, the GFP fluorescence, lower = active (kMESF (background-subtracted)) was 14.6 (inactive).

As for `O=C(/C=C/c1ccccc1Cl)c1ccccc(=O)c1O`, the GFP fluorescence, lower = active (kMESF (background-subtracted)) is 5.26 (inactive).

`Cc1ccc(C(CC(=O)O)NC(=O)c2ccc(S(=O)(=O)N3CC(C)OC(C)C3)cc2)cc1` (centres undefined): the GFP fluorescence, lower = active (kMESF (background-subtracted)) was 39.2 (inactive).

As to `Clc1cccc(CN2COc3c(cc(Cl)c4cccnc34)C2)c1`, the GFP fluorescence, lower = active (kMESF (background-subtracted)) was 36.5 (inactive).

For the molecule `Cc1cc(C)nc(S/C=C/C(=O)c2ccccc2)n1`, the GFP fluorescence, lower = active (kMESF (background-subtracted)) is 47.4 (inactive).

With `O=C(/C=C/Sc1ncn[nH]1)c1ccc(Cl)cc1`, the GFP fluorescence, lower = active (kMESF (background-subtracted)) was 29 (inactive).

For the molecule `C[C@@]12C(=O)OC(=O)[C@]1(C)C1CCC2O1`, the GFP fluorescence, lower = active (kMESF (background-subtracted)) was 25.9 (inactive).

For the molecule `CC(=O)Oc1cccc(N2C(=O)c3cccc4c([N+](=O)[O-])ccc(c34)C2=O)c1`, the GFP fluorescence, lower = active (kMESF (background-subtracted)) was 39.5 (inactive).

`N/C(=N\OC(=O)c1ccccc1Cl)c1ccc(Cl)cc1`: the GFP fluorescence, lower = active (kMESF (background-subtracted)) was 38.2 (inactive).

On to `Cc1cc(C(=O)Nc2nc(-c3ccccn3)cs2)ccc1[N+](=O)[O-]`, for which the GFP fluorescence, lower = active (kMESF (background-subtracted)) was 48.9 (inactive).

With `C=C1C(O)[C@@H]2O[C@]3(CC[C@H](/C=C/C(C)[C@@H]4CC(C)=CC5(O[C@H](C[C@@](C)(O)C(=O)O)CCC5O)O4)O3)CC[C@H]2O[C@@H]1C(O)CC(C)[C@H]1OC2(CCCCO2)CCC1C` (some centres undefined), the GFP fluorescence, lower = active (kMESF (background-subtracted)) is 41.3 (inactive).

In the case of `CCCCc1ccc(NC(=O)CC(C)=O)cc1`, the GFP fluorescence, lower = active (kMESF (background-subtracted)) is 47.2 (inactive).

As to `Cc1c(Cc2ccccc2)c(NCCN(C)C)n2c(nc3ccccc32)c1C#N`, the GFP fluorescence, lower = active (kMESF (background-subtracted)) was 46.6 (inactive).

In the case of `Oc1c(Br)cc(Br)cc1C=Nc1ccc2[nH]ncc2c1`, the GFP fluorescence, lower = active (kMESF (background-subtracted)) is 36 (inactive).

In the case of `O=C1C=CC(=O)N1c1ccc(OC(F)F)cc1`, the GFP fluorescence, lower = active (kMESF (background-subtracted)) was 14.7 (inactive).

For `N/C(=N\OC(=O)c1cccc(Br)c1)c1ccccc1`, the GFP fluorescence, lower = active (kMESF (background-subtracted)) is 40.8 (inactive).

On to `O=C(CS(=O)c1ccccc1[N+](=O)[O-])Oc1ccc(Br)cc1` (centres undefined), for which the GFP fluorescence, lower = active (kMESF (background-subtracted)) is 39.1 (inactive).

Regarding `Cc1ccc(O)c(N=Nc2nccs2)c1`, the GFP fluorescence, lower = active (kMESF (background-subtracted)) is 32.1 (inactive).

As for `Oc1c(C(Nc2cccc(C(F)(F)F)c2)c2ccncc2)ccc2cccnc12` (centres undefined), the GFP fluorescence, lower = active (kMESF (background-subtracted)) was 45.3 (inactive).

Turning to `CCCCC1OC23CCCCC2C(C#N)(C(=N)O3)C1(C#N)C#N` (centres undefined), the GFP fluorescence, lower = active (kMESF (background-subtracted)) was 43.5 (inactive).

`COc1ccc(C(=O)NC(=S)NNC(=O)c2cnccn2)cc1`: the GFP fluorescence, lower = active (kMESF (background-subtracted)) was 35.4 (inactive).

`COc1ccc(NC2=C(Cl)C(=O)N(CCc3ccccc3)C2=O)c(OC)c1`: the GFP fluorescence, lower = active (kMESF (background-subtracted)) is 39.1 (inactive).

On to `O=C(OCC(=O)N1CCN(C(=O)c2ccco2)CC1)c1cc(-c2ccc(Cl)c(Cl)c2Cl)nc2ccccc12`, for which the GFP fluorescence, lower = active (kMESF (background-subtracted)) is 31.8 (inactive).

Regarding `Cc1ccc(/C(N)=N/OC(=O)c2ccc(F)cc2)cc1`, the GFP fluorescence, lower = active (kMESF (background-subtracted)) is 43.7 (inactive).

In the case of `O=C1C(Cl)=C(Nc2ccccc2O)C(=O)N1c1ccccc1`, the GFP fluorescence, lower = active (kMESF (background-subtracted)) was 43.6 (inactive).

On to `Cc1ccsc1/C=N/Nc1ncc(Cl)cc1Cl`, for which the GFP fluorescence, lower = active (kMESF (background-subtracted)) is 49.1 (inactive).

In the case of `CC1=CC(=O)C(C(C)C)=C/C1=N/OS(=O)(=O)c1ccccc1`, the GFP fluorescence, lower = active (kMESF (background-subtracted)) is 23.9 (inactive).

As for `O=C1C(Cl)=C(NCCc2ccccc2)C(=O)N1CCc1ccccc1`, the GFP fluorescence, lower = active (kMESF (background-subtracted)) is 43.1 (inactive).

As to `Cc1ccsc1/C=C1\C(=O)NC(=S)N(C)C1=O`, the GFP fluorescence, lower = active (kMESF (background-subtracted)) was 19.6 (inactive).

On to `O=C(Oc1oc(-c2ccco2)nc1C=Nc1ccc(Cl)cc1)c1ccco1`, for which the GFP fluorescence, lower = active (kMESF (background-subtracted)) is 52.3 (inactive).

With `Cc1cccc(NC(c2ccc(C)s2)c2ccc3ccc(C)nc3c2O)n1` (centres undefined), the GFP fluorescence, lower = active (kMESF (background-subtracted)) was 31.2 (inactive).

Turning to `CCCOc1ccc(C(=O)NNC(=S)NC(=O)c2ccccc2)cc1`, the GFP fluorescence, lower = active (kMESF (background-subtracted)) is 45.7 (inactive).

On to `COc1ccc(/C=C2/C(=O)ON=C2c2ccccc2)cc1OC`, for which the GFP fluorescence, lower = active (kMESF (background-subtracted)) is 39.5 (inactive).

With `COc1ccc(/C=C/C(=O)c2cc(Br)ccc(=O)c2O)cc1`, the GFP fluorescence, lower = active (kMESF (background-subtracted)) was -35.7 (inactive).

As to `CN(C)C(=O)Oc1ccnc2cc(Cl)ccc12`, the GFP fluorescence, lower = active (kMESF (background-subtracted)) is 38.2 (inactive).

Consider `COc1cc(/C=C2/C(=O)c3cccc([N+](=O)[O-])c3C2=O)c(Br)cc1O`, for which the GFP fluorescence, lower = active (kMESF (background-subtracted)) is 43.9 (inactive).

Regarding `Cc1ccnc(N2C(=O)c3cccc4c([N+](=O)[O-])ccc(c34)C2=O)c1`, the GFP fluorescence, lower = active (kMESF (background-subtracted)) was 56.1 (inactive).

In the case of `COc1ccc(N=Cc2nc(-c3ccccc3)oc2OC(=O)c2ccccc2)cc1`, the GFP fluorescence, lower = active (kMESF (background-subtracted)) is 46.2 (inactive).

`COc1ccc(N2C(=O)CC(Sc3ncn[nH]3)C2=O)c(OC)c1` (centres undefined): the GFP fluorescence, lower = active (kMESF (background-subtracted)) was 42.2 (inactive).

On to `COc1cc(/C=C2/C(=O)ON=C2c2ccccc2)ccc1O`, for which the GFP fluorescence, lower = active (kMESF (background-subtracted)) is 35.6 (inactive).

On to `C[n+]1ccc(/C=C/c2c[nH]c3ccccc23)cc1`, for which the GFP fluorescence, lower = active (kMESF (background-subtracted)) is 53.8 (inactive).

For `C=CCOc1ccc(C(=O)/C=C2/C(=O)Nc3ccccc32)cc1`, the GFP fluorescence, lower = active (kMESF (background-subtracted)) is 37.9 (inactive).

Take `COc1ccccc1[C@]1(C)ON(c2ccccc2C(F)(F)F)C1=O`: the GFP fluorescence, lower = active (kMESF (background-subtracted)) was 30.8 (inactive).

In the case of `Cc1cc(C2CCCCC2)n(O)c(=O)c1`, the GFP fluorescence, lower = active (kMESF (background-subtracted)) is 42.8 (inactive).

`O=C1c2cccc3c([N+](=O)[O-])ccc(c23)C(=O)N1c1ccccn1`: the GFP fluorescence, lower = active (kMESF (background-subtracted)) is 55.8 (inactive).

Turning to `CC1=C/C(=N\OS(=O)(=O)c2ccccc2)C(C)=CC1=O`, the GFP fluorescence, lower = active (kMESF (background-subtracted)) was 17.1 (inactive).

`Cc1ccc(/C=c2\sc3nc(-c4cccs4)nn3c2=O)o1`: the GFP fluorescence, lower = active (kMESF (background-subtracted)) is 44.7 (inactive).

Regarding `O=C1C=CC(=O)N1N(c1ccccc1)c1ccccc1`, the GFP fluorescence, lower = active (kMESF (background-subtracted)) is 23.9 (inactive).

In the case of `COc1ccc(C(=O)/C=C2/C(=O)Nc3ccccc32)cc1`, the GFP fluorescence, lower = active (kMESF (background-subtracted)) is 38 (inactive).

In the case of `N#Cc1nccnc1S(=O)(=O)c1cccs1`, the GFP fluorescence, lower = active (kMESF (background-subtracted)) is 35.5 (inactive).

Take `COc1cccc2c(=O)c(C(=O)NCc3cccs3)c[nH]c12`: the GFP fluorescence, lower = active (kMESF (background-subtracted)) was 40.5 (inactive).

With `O=C(Nc1nc2ccc(F)cc2s1)c1ccccn1`, the GFP fluorescence, lower = active (kMESF (background-subtracted)) was 48.2 (inactive).

For `Cc1ccc(C(=O)NNC(=S)NC(=O)COc2ccccc2)cc1`, the GFP fluorescence, lower = active (kMESF (background-subtracted)) was 41.1 (inactive).

Consider `COc1ccc(N2CCN(C(=O)c3ccc(Br)cc3)CC2)c([N+](=O)[O-])c1`, for which the GFP fluorescence, lower = active (kMESF (background-subtracted)) was 47.4 (inactive).

In the case of `COc1cccc(/C=C/C(=O)c2c(O)cc(C)oc2=O)c1O`, the GFP fluorescence, lower = active (kMESF (background-subtracted)) was 40.4 (inactive).

Take `COc1ccc(Cl)cc1C(Nc1cccnc1)c1ccc2cccnc2c1O` (centres undefined): the GFP fluorescence, lower = active (kMESF (background-subtracted)) is 42.8 (inactive).

Take `COc1cc(/C=C2\C(=O)ON=C2c2ccccc2)cc(OC)c1OC`: the GFP fluorescence, lower = active (kMESF (background-subtracted)) is 33.4 (inactive).

As to `O=c1c2cc(Cl)ccc2nc(-c2ccc([N+](=O)[O-])cc2)n1O`, the GFP fluorescence, lower = active (kMESF (background-subtracted)) is 14 (inactive).

In the case of `COc1ccc(NC(=O)/C(Cl)=C(/Cl)S(=O)Cc2ccccc2)cn1` (centres undefined), the GFP fluorescence, lower = active (kMESF (background-subtracted)) was 35.8 (inactive).

Turning to `COc1ccccc1N1C(=O)c2cccc3c(C(=O)O)ccc(c23)C1=O`, the GFP fluorescence, lower = active (kMESF (background-subtracted)) was 44.8 (inactive).

Turning to `O=C(COc1c(Br)cc(Br)c2cccnc12)N1CCc2ccccc2C1`, the GFP fluorescence, lower = active (kMESF (background-subtracted)) is 45.4 (inactive).

On to `Cc1cc(O)c(C(=O)/C=C/c2ccc(Cl)cc2)c(=O)o1`, for which the GFP fluorescence, lower = active (kMESF (background-subtracted)) was 33 (inactive).

Source of the values: PubChem BioAssay AID2740 (NMMLSC, 2010).
